The values that follow come from patent US7183061B2, “Method of expressing Heliothis ecdysone receptor fusion protein” (Syngenta Limited, priority 1996, dated 2007).

Each structure is given as a SMILES string.

The target in assay [1] is T1, glucocorticoid/Drosophila ecdysone chimeric receptor (UniProt P04150+P34021).
T1 construct: expressed in transfected cells; host or cells: maize suspension-culture protoplasts
T1 sequence (P04150+P34021 with tags, fused parts or gaps): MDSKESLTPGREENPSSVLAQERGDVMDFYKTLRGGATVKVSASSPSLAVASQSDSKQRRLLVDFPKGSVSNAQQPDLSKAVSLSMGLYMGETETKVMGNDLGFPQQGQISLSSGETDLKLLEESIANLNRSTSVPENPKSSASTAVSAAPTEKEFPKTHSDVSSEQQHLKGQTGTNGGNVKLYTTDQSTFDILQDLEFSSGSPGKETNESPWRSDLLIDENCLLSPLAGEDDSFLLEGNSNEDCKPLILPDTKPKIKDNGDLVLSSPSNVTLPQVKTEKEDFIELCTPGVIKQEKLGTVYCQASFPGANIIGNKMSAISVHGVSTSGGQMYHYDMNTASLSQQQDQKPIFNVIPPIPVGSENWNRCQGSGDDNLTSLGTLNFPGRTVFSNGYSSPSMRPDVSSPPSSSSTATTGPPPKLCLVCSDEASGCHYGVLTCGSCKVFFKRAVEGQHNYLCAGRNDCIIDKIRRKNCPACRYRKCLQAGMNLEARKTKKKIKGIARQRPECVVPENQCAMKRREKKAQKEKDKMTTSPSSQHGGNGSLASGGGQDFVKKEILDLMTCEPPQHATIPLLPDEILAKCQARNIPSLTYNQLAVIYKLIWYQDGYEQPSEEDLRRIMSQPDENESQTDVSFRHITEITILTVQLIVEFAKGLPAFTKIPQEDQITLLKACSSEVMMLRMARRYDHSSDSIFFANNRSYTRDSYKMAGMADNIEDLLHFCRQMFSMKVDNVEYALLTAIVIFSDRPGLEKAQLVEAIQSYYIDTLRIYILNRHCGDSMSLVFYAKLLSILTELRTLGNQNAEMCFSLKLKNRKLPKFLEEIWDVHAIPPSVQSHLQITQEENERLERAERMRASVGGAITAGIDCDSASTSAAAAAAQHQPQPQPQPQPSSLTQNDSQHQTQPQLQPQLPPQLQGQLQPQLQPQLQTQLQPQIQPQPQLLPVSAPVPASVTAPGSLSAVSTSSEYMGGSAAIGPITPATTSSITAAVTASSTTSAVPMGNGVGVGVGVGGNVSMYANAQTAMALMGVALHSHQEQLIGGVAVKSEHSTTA
As to the kind of experiment: Maize protoplast GUS reporter assay with pMF6GREcRS and p221.9GRE6. Type of assay: cell-based. The following applies: maize protoplasts, reporter plus effector. A general note: A reporter such as luciferase makes a cellular process visible.
Experimental: Protoplasts were isolated from a maize suspension culture derived from BE70×A188 embryogenic callus material, which was maintained by subculturing twice weekly in MS0.5mod. (MS medium supplemented with 3% sucrose, 690 mg/l proline, 1 g/l myo-inositol, 0.2 g/l casein acid hydrolysate, 0.5 mg/l 2,4-D, pH 5.6). Cells from suspensions two days post subculture were digested in enzyme mixture (2.0% Cellulase RS, 0.2% Pectolyase Y23, 0.5 M Mannitol, 5 mM CaCl2.2H2O, 0.5% MES, pH 5.6, ˜660 mmol/kg) using ˜10 ml/g cells, incubating at 25° C., dim light, rotating gently for ˜2 hours. The digestion mixture was sieved sequentially through 250 μm and 38 μm sieves, and the filtrate centrifuged at 700 rpm for 3.5 minutes, discarding the supernatant. The protoplasts were resuspended in wash buffer (0.358 M KCl, 1.0 mM NH4NO3, 5.0 mM CaCl2.2H2O, 0.5 mM KH2PO4, pH 4.8, ˜670 mmol/kg) and pelleted as before. This washing step was repeated. The pellet was resuspended in wash buffer and the protoplasts were counted. Transformation was achieved using a Polyethylene glycol method based on Negrutiu et al. Protoplasts were resuspended at 2×10^6/ml in MaMg medium (0.4 M Mannitol, 15 mM MgCl2, 0.1% MES, pH 5.6, ˜450 mmol/kg) aliquotting 0.5 ml/treatment (i.e. 1×10^6 protoplasts/treatment). Samples were heat shocked at 45° C. for 5 minutes then cooled to room temperature. 10 μg each of p221.9GRE6 and pMF6HR1PAT (GR) (1 mg/ml)/treatment were added and mixed in gently, followed by immediate addition of 0.5 ml warm (˜45° C.) PEG solution (40% PEG 3,350 MW in 0.4 M Mannitol, 0.1 M Ca(NO3)2, pH 8.0), which was mixed in thoroughly but gently. Treatments were incubated at room temperature for 20–25 minutes, then 5 ml 0.292 M KCl (pH 5.6, ˜530 mmol/kg) was added step-wise, 1 ml at a time, with mixing. The treatments were incubated for a further 10–15 minutes prior to pelleting the protoplasts by centrifuging as before. […] Protein concentrations of tissue homogenates were determined by the Bio-Rad protein assay (Bradford, 1976). […]

The target in assay [2] is T2, glucocorticoid/Heliothis ecdysone chimeric receptor (UniProt O18473+P04150).
T2 sequence (P04150+O18473 with tags, fused parts or gaps): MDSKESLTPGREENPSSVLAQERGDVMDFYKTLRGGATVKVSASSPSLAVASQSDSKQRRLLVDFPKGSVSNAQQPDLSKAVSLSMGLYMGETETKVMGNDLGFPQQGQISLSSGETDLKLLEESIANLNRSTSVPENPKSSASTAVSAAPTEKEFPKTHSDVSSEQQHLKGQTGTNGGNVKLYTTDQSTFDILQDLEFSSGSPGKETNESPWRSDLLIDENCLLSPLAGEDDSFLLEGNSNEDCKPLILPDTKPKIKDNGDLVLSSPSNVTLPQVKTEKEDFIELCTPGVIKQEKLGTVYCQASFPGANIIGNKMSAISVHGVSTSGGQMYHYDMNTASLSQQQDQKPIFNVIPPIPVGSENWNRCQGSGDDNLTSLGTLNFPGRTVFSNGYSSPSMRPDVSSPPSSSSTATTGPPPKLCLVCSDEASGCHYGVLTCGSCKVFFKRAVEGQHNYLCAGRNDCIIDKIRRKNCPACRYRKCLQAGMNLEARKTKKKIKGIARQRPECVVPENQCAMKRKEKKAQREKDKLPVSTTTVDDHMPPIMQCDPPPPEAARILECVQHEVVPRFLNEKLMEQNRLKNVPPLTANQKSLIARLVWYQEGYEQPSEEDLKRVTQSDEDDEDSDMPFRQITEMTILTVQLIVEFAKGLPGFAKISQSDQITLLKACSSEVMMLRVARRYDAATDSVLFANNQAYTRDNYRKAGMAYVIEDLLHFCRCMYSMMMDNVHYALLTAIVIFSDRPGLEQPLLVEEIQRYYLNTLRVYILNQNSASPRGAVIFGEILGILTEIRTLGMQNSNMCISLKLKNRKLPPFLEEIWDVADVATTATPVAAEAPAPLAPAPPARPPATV
The experiment in a line: Maize protoplast GUS reporter assay with pMF6GRHEcR and p221.9GRE6. The following applies: maize protoplasts. Also on record: expressed in transfected cells; host or cells: maize protoplasts (A5); tobacco mesophyll protoplasts (A6); CHO-K1 (A7); HEK293 (A8); stably transformed tobacco plants (A9). The assay is classed as cell-based, Heliothis virescens.
Experimental: Protoplasts were isolated from a maize suspension culture derived from BE70×A188 embryogenic callus material, which was maintained by subculturing twice weekly in MS0.5mod. (MS medium supplemented with 3% sucrose, 690 mg/l proline, 1 g/l myo-inositol, 0.2 g/l casein acid hydrolysate, 0.5 mg/l 2,4-D, pH 5.6). Cells from suspensions two days post subculture were digested in enzyme mixture (2.0% Cellulase RS, 0.2% Pectolyase Y23, 0.5 M Mannitol, 5 mM CaCl2.2H2O, 0.5% MES, pH 5.6, ˜660 mmol/kg) using ˜10 ml/g cells, incubating at 25° C., dim light, rotating gently for ˜2 hours. The digestion mixture was sieved sequentially through 250 μm and 38 μm sieves, and the filtrate centrifuged at 700 rpm for 3.5 minutes, discarding the supernatant. The protoplasts were resuspended in wash buffer (0.358 M KCl, 1.0 mM NH4NO3, 5.0 mM CaCl2.2H2O, 0.5 mM KH2PO4, pH 4.8, ˜670 mmol/kg) and pelleted as before. This washing step was repeated. The pellet was resuspended in wash buffer and the protoplasts were counted. Transformation was achieved using a Polyethylene glycol method based on Negrutiu et al. Protoplasts were resuspended at 2×10^6/ml in MaMg medium (0.4 M Mannitol, 15 mM MgCl2, 0.1% MES, pH 5.6, ˜450 mmol/kg) aliquotting 0.5 ml/treatment (i.e. 1×10^6 protoplasts/treatment). Samples were heat shocked at 45° C. for 5 minutes then cooled to room temperature. […]

As to `CC(C)CC[C@@H](O)[C@](C)(O)[C@H]1CC[C@@]2(O)C3=CC(=O)[C@]4(O)C[C@@H](O)[C@@H](O)C[C@]4(C)[C@H]3[C@H](O)C[C@]12C` [Muristerone A], in assay [1] (100 μM), the marker gene activity result is “significant elevation of marker gene activity”. Moreover, the response of reporter entry in assay [2] (100 μM) is listed as “no response”.
`CCc1ccc(C(=O)NN(C(=O)c2cc(C)cc(C)c2)C(C)(C)C)cc1` [RH5992, 3,5-dimethylbenzoic acid 1-1(1,1-dimethylethyl)-2(4-ethylbenzoyl)hydrazide]: the “chemical induced reporter gene activity / induced levels of expression” value in assay [1] (concentration not given) is on record as “no chemical induced reporter gene activity”. Also, the “chemical induced reporter gene activity” value in assay [2] (concentration not printed (FIG. 20)) was “significant chemical induced reporter gene activity”.
